Patent US12435044B2, “Pyridazinone herbicides and pyridazinone intermediates used to prepare a herbicide” (FMC Corporation, priority 2018, dated 2025)

Key:
Assay type in all cases: in vivo
[1] = test system: chamomile (scentless chamomile, Matricaria inodora); test: Test D postemergence controlled growth environment test
Source text: Seeds of plant species selected from blackgrass (Alopecurus myosuroides), galium (catchweed bedstraw, Galium aparine), kochia (Kochia scoparia), oilseed rape (Brassica napus), barley, spring (Hordeum vulgare), wheat, spring (Triticum aestivum), oat, wild (Avena fatua), barley, winter (Hordeum vulgare) and wheat, winter (Triticum aestivum) were planted into a silt loam soil and treated preemergence with test chemicals formulated in a non-phytotoxic solvent mixture which included a surfactant.
At the same time, plants selected from these crop and weed species and also bluegrass (annual bluegrass, Poa annua), canarygrass (littleseed canarygrass, Phalaris minor), chickweed (common chickweed, Stellaria media), bromegrass, downy (downy bromegrass, Bromus tectorum), field poppy (Papaver rhoeas), field violet (Viola arvensis), foxtail, green (Setaria viridis), deadnettle (henbit deadnettle, Lamium amplexicaule), ryegrass, Italian (Lolium multiflorum), lambsquarters (Chenopodium album), pigweed (Amaranthus retroflexus), chamomile (scentless chamomile, Matricaria inodora), Russian thistle (Salsola kali), speedwell (bird's-eye speedwell, Veronica persica), buckwheat, wild (Polygonum convolvulus), mustard, wild (Sinapis arvensis), radish, wild (Raphanus raphanistrum), windgrass (Apera spica-venti), geranium, cutleaf (Geranium dissectum) and Canada thistle (Cirsium arvense) were planted in pots containing Redi-Earth® planting medium (Scotts Company, 14111 Scottslawn Road, Marysville, Ohio 43041) comprising spaghnum peat moss, vermiculite, wetting agent and starter nutrients and treated with postemergence applications of the test chemicals formulated in the same manner. Plants ranged in height from 2 to 18 cm (1- to 4-leaf stage). Treated plants and controls were maintained in a controlled growth environment for 14 to 21 d after which time all species were compared to controls and visually evaluated. Plant response ratings, summarized in Table D, are based on a scale of 0 to 100 where 0 is no effect and 100 is complete control. A dash (-) response means no test result.

[2] = test system: water seeded rice seedlings (Rice, W. S. Jap, Oryza sativa cv. ‘Japonica-M202’ or Rice, W. S. Ind, ‘Indica’); test: Test F flooded paddy test; details: Flood, after 21 d
Source text: (§1) Three plastic pots (ca. 16-cm diameter) per rate were partially filled with sterilized Tama silt loam soil comprising a 35:50:15 ratio of sand, silt and clay and 2.6% organic matter. Separate plantings for each of the three pots were as follows. Seeds from the U.S. of monochoria (Monochoria vaginalis), sedge, umbrella (small-flower umbrella sedge, Cyperus difformis) and redstem (purple redstem, Ammannia coccinea), were planted into one 16-cm pot for each rate. Seeds from the U.S. of rice flatsedge (Cyperus iria), sprangletop, Brdd. (bearded sprangletop, Leptochloa fascicularis), one stand of 9 or 10 water seeded rice seedlings (Rice, W. S. Jap, Oryza sativa cv. ‘Japonica-M202’ or Rice, W. S. Ind, ‘Indica’), and two stands of 3 or 4 transplanted rice seedlings (Oryza sativa cv. ‘Japonica-M202’) were planted into one 16-cm pot for each rate. Seeds from the U.S. of barnyardgrass (Echinochloa crus-galli), and late watergrass (Echinochloa oryzicola) were planted into one 16-cm pot for each rate.
(§2) Plantings were sequential so that crop and weed species were at the 2.0 to 2.5-leaf stage at time of treatment.
(§3) Potted plants were grown in a greenhouse with day/night temperature settings of 30/27° C., and supplemental balanced lighting was provided to maintain a 16-hour photoperiod. Test pots were maintained in the greenhouse until test completion.
(§4) At time of treatment, test pots were flooded to 3 cm above the soil surface, treated by application of test compounds directly to the paddy water, and then maintained at that water depth for the duration of the test. Effects of treatments on rice and weeds were visually evaluated by comparison to untreated controls after 21 d. Plant response ratings, summarized in Table F, are based on a scale of 0 to 100 where 0 is no effect and 100 is complete control. A dash (-) response means no test result.

[3] = test system: monochoria (Monochoria vaginalis); test: Test F flooded paddy test; details: Flood, after 21 d
Source text: as §1, §2, §3, §4

[4] = test system: transplanted rice seedlings (Oryza sativa cv. ‘Japonica-M202’); test: Test F flooded paddy test; details: Flood, after 21 d
Source text: as §1, §2, §3, §4

[5] = test system: barnyardgrass (Echinochloa crus-galli); test: Test F flooded paddy test; details: Flood, after 21 d
Source text: as §1, §2, §3, §4

[6] = test system: late watergrass (Echinochloa oryzicola); test: Test F flooded paddy test; details: Flood, after 21 d
Source text: as §1, §2, §3, §4

[7] = test system: foxtail, giant (Setaria faberii); test: Test A pre-/postemergence greenhouse test
Outline: (§5)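 Postemergence crops and weeds were sprayed at the one- to two-leaf stage (2–10 cm), preemergence weeds via directed soil spray after sowing. After approximately 10 d in greenhouse, response was scored visually from 0 (no effect) to 100 (complete control).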

[8] = test system: foxtail, green (Setaria viridis); test: Test A pre-/postemergence greenhouse test
Outline: as §5

Structure (SMILES) | Plant response rating, Chamomile ([1]; 16 g ai/ha) | Plant response rating, Chamomile ([1]; 31 g ai/ha) | Plant response rating, Chamomile ([1]; 62 g ai/ha) | Plant response rating, Chamomile ([1]; 125 g ai/ha) | Plant response rating (0 to 100 scale) ([2]; 125 g ai/ha) | Plant response rating (0 to 100 scale) ([3]; 125 g ai/ha) | Plant response rating (0 to 100 scale) ([4]; 125 g ai/ha) | Plant response rating (0 to 100 scale) ([5]; 125 g ai/ha) | Plant response rating (0 to 100 scale) ([6]; 125 g ai/ha) | Plant response rating (0 to 100 scale) ([7]; Postemergence, 31 g ai/ha) | Plant response rating (0 to 100 scale) ([7]; Postemergence, 125 g ai/ha) | Plant response rating (0 to 100 scale) ([7]; Preemergence, 31 g ai/ha) | Plant response rating (0 to 100 scale) ([7]; Preemergence, 125 g ai/ha) | Plant response rating (0 to 100 scale) ([8]; Postemergence, 31 g ai/ha) | Plant response rating (0 to 100 scale) ([8]; Postemergence, 125 g ai/ha) | Plant response rating (0 to 100 scale) ([8]; Preemergence, 31 g ai/ha) | Plant response rating (0 to 100 scale) ([8]; Preemergence, 125 g ai/ha) | other results
Cc1ccc2ccc(C)c(-c3c(O)c(Cl)nn(C)c3=O)c2c1 [Cpd. No. 20, 6-chloro-4-(2,7-dimethyl-1-naphthalenyl)-5-hydroxy-2-methyl-3(2H)-pyridazinone] | 95 | 98 | 100 | 100 | 5 | 95 | 0 | 43 | 50 | 80 | 100 | 80 | 100 | – | – | – | – | Plant response rating (0 to 100 scale) ([2]; 31 g ai/ha): 0; Plant response rating (0 to 100 scale) ([2]; 62 g ai/ha): 0; Plant response rating (0 to 100 scale) ([2]; 250 g ai/ha): 23; Plant response rating (0 to 100 scale) ([3]; 31 g ai/ha): 10; Plant response rating (0 to 100 scale) ([3]; 62 g ai/ha): 90; Plant response rating (0 to 100 scale) ([3]; 250 g ai/ha): 99; Plant response rating (0 to 100 scale) ([4]; 31 g ai/ha): 0; Plant response rating (0 to 100 scale) ([4]; 62 g ai/ha): 0; Plant response rating (0 to 100 scale) ([4]; 250 g ai/ha): 0; Plant response rating (0 to 100 scale) ([5]; 31 g ai/ha): 0; Plant response rating (0 to 100 scale) ([5]; 62 g ai/ha): 0; Plant response rating (0 to 100 scale) ([5]; 250 g ai/ha): 65; Plant response rating (0 to 100 scale) ([6]; 31 g ai/ha): 0; Plant response rating (0 to 100 scale) ([6]; 62 g ai/ha): 35; Plant response rating (0 to 100 scale) ([6]; 250 g ai/ha): 73
Cc1ccc2ccc(F)cc2c1-c1c(O)c(Cl)nn(C)c1=O [Cpd. No. 21] | – | – | – | – | – | – | – | – | – | – | – | – | – | 90 | 100 | 70 | 100 | –
Cc1ccc2ccc(Cl)cc2c1-c1c(O)c(Cl)nn(C)c1=O [Cpd. No. 22] | – | – | – | – | – | – | – | – | – | – | – | – | – | 100 | 100 | 90 | 100 | –
Cc1cc(Cl)c2ccccc2c1-c1c(O)c(Cl)nn(C)c1=O [Cpd. No. 65] | 99 | 100 | 100 | 100 | 0 | 100 | 15 | 60 | 55 | 100 | 100 | 100 | 100 | – | – | – | – | Plant response rating (0 to 100 scale) ([2]; 64 g ai/ha): 0; Plant response rating (0 to 100 scale) ([3]; 64 g ai/ha): 100; Plant response rating (0 to 100 scale) ([4]; 64 g ai/ha): 0; Plant response rating (0 to 100 scale) ([5]; 64 g ai/ha): 10; Plant response rating (0 to 100 scale) ([6]; 64 g ai/ha): 20
